In patent US20170304309A1, “CAFFEINE FOR THE TREATMENT OF MYOTONIC DYSTROPHY TYPE 1 AND TYPE 2” (UNIVERSITAT DE VALÈNCIA, priority 2014, published 2017):

How the values were obtained:
sodium channel = conditions: small studies; cited from earlier work
[1] = test system: DM1 pathology (splicing defects); conditions: cited from earlier work
normal fibroblasts = experiment: MTS cell viability of normal fibroblasts exposed to caffeine; format: cell-based, human; conditions: highest concentration (500 μM), 24 h, relative to cells not exposed to caffeine
Experimental: Cells were aliquoted in 96-well plate with 1.0×10^4 cells per well and incubated for 24 h. […] To measure cell viability, MTS tetrazolium salt was added to each well and was incubated for 4 h at 37° C. in a humidified chamber with 5% CO2. The conversion of MTS into soluble formazan (accomplished by dehydrogenase enzymes from metabolically active cells) was measured by absorbance at 490 nm (CellTiter 96® Aqueous Non-Radioactive Cell Profileration Assay, Promega). Data were transformed to percentage of survival relative to cells not exposed to caffeine, which established 100% viability.

[2] = test system: human MBNL1 promoter under Drosophila muscleblind ME enhancer (eGFP reporter); experiment: eGFP reporter expression in ME:hsaP1-eGFP transgenic flies; format: in vivo; conditions: heterozygous ME:hsaP1-eGFP flies, 25 mg/ml caffeine in food, 8 h, vs sucrose
CAG-CTG repeat sequences = conditions: high doses of caffeine, close to 2 mM; cited from earlier work
CUG repeats = conditions: WO03/020977; cited from earlier work
[3] = test system: ribonuclear foci in DM1 fibroblasts; experiment: Ribonuclear foci detection by in situ hybridization in DM1 fibroblasts; conditions: caffeine in culture media, vs DMSO
Experimental: Cell model of the disease (provided by the D. Furling's laboratory, Institute of Myologie, Paris) consisted of normal and DM1 (1300 CTG repeats) immortalized (hTERT) skin fibroblasts expressing conditional MyoD. […] Fibroblasts were transdifferentiated in myoblasts by inducing expression of MyoD. Cells were plated in muscle differentiation medium (MDM) made of DMEM 4.5 g/L glucose with 1% P/S, 2% horse serum, 1% apo-transferrin (10 mg/ml), 0.1% insulin (10 mg/ml) and 0.02% doxycyclin (10 mg/ml) for 48 h. For compound testing fibroblasts were aliquoted in 24-well plate with 3.5×10^4 cells per well and were differentiated as before.

foci = conditions: WO03/020977; cited from earlier work
[4] = test system: CUG repeat RNA (6-FAM-CUG23); experiment: Fluorescence polarization assay with 6-FAM-CUG23 RNA; format: binding; conditions: increasing concentrations, up to twice those of positive control pentamidine
Experimental: This was assessed in fluorescence polarization spectroscopy experiments in which fluorescent CUG RNA probe (carboxyfluorescein (6-FAM)-labeled) was incubated in increasing concentrations of caffeine.
Carboxyfluorescein-labeled CUG RNA (23 CUG repeats; 6-FAM-CUG23) at 6 nM was incubated with caffeine at different concentrations in binding buffer (50 mM Tris-HCl pH 7.0, 250 mM NaCl, 50 μM ZnCl2, 10% glycerol, 1 mM DTT) on ice for 20 min in the dark. Polarization was measured in a EnVision® Multilabel Reader using as excitation filter FP480 and as emission filter FP535.

[5] = test system: MBNL1 expression in human DM1 myoblasts; experiment: Immunodetection of MBNL1 in DM1 myoblasts; format: cell-based
Experimental: Fibroblasts were transdifferentiated in myoblasts by inducing expression of MyoD. Cells were plated in muscle differentiation medium (MDM) made of DMEM 4.5 g/L glucose with 1% P/S, 2% horse serum, 1% apo-transferrin (10 mg/ml), 0.1% insulin (10 mg/ml) and 0.02% doxycyclin (10 mg/ml) for 48 h. For compound testing fibroblasts were aliquoted in 24-well plate with 3.5×10^4 cells per well and were differentiated as before. […] Cells were then incubated with ABC solution (ABC kit, VECTASTAIN) for 30 min at room temperature, followed by PBT washes and incubation with streptavidin-FITC (1:1000) for 20 min.

DM1 model flies = experiment: Climbing assay in DM1 model flies; format: in vivo, Drosophila; conditions: 1.72 mM caffeine in nutritive media vs DMSO
Experimental: Groups of ten 5-day-old males were transferred into vials of 1.5 cm in diameter and 25 cm in height, after a period of 24 hours without anesthesia. The height reached from the bottom of the vial by each fly in a period of 10 s was recorded with a camera. For each genotype, approximately 30 flies were tested. […] We used a t-test to assess the statistical difference between the two groups of flies, fed with or without compound.

For `Cc1cccc(C)c1OCC(C)N` (stereo not drawn) [Mexiletine, mexiletine], the myotonia (sodium channel) is given as “reduced”.
In the case of `N=C(N)c1ccc(OCCCCCOc2ccc(C(=N)N)cc2)cc1` [pentamidine], the “rescue of DM1 pathology” value [1] is given as “partial rescue”.
For `Cn1c(=O)c2c(ncn2C)n(C)c1=O` [caffeine], the “percentage of survival of normal fibroblasts (living cells)” value (normal fibroblasts) is listed as “greater than 50%”, the “expression of the eGFP reporter, normalized to total protein” value [2] is listed as “significantly increase” and the “increase of the rate of expansion” value (CAG-CTG repeat sequences) is listed as about 63%. The “binding to CUG repeats” value (CUG repeats) was “not able to bind”, the “mean number of ribonuclear foci per cell” value [3] was “increased” and the number of foci (foci) was “increases”. For the same compound, the “polarization values of 6-FAM-CUG RNA (binding to CUG repeats)” value [4] was “did not increase”, the “MBNL1 expression in the cytoplasm and in the cell nucleus” value ([5]; 125 and 250 μM caffeine, 48 h, vs DMSO alone) was “increased” and the “number of MBNL1-containing foci” value ([5]; caffeine-treated vs DMSO-treated cells) was “qualitatively higher”. The climbing velocity (DM1 model flies) was “significantly improved”.
